These compounds were tested against T1, Human ATX protein (Homo sapiens, UniProt Q13822) (assay: Autotaxin (ATX) assay, FRET with FS-3 substrate). Details: 10 uM compound.
T1 construct: made in house
Type: biochemical
Source text: ATX (Autotaxin) is a 125 KDa glycoprotein with lysophospholipase D (LPLD) activity that generates the bioactive lipid lysophosphatidic acid (LPA) from lysophosphatidylcholine (LPC). The ATX biochemical assay utilizes a FRET (fluorescence resonance energy transfer) technology platform. The fluorescence signal of FRET substrate FS-3 is quenched due to intra-molecular FRET of a fluorophore to a non-fluorescing quencher (Ferguson, C. G., et al., Org Lett. 2006 May 11; 8(10): 2023-2026, which is incorporated by reference in its entirety). ATX catalyzes the hydrolysis of the substrate which separates the dabsyl quencher from the fluorescein reporter, which becomes fluorescent. The reaction is monitored by a SpectraMax M5 (Molecular Devices, Sunnyvale, Calif.) with at excitation wavelength 485 nm and emission wavelength […].
Fatty acid free-BSA (Sigma A8806): 10 mg/mL in H2O, stored at 4° C.
2×ATX assay buffer: 100 mM Tris, 280 mM NaCl, 10 mM KCl, 2 mM CaCl2, 2 mM MgCl2, pH 7.4.
Human ATX protein: expressed and purified in house. Stored at −80° C.
Substrate FS-3 (Echelon, L-2000): 100 μg in 77.74 μL H2O (1 mM stock), stored at −20° C.
384-well flat bottom plates—Corning #3575.
Compound dilution—All compounds were provided at 10 mM in 100% DMSO. In the first well, 2 μL of 10 mM compound was added to 78 μL of DMSO (1:40 dilution). In subsequent wells 3-fold dilution (total 10 dilutions) were performed.
1×ATX assay buffer was made up with a final concentration of 1 mg/mL fatty acid free-BSA using 2×ATX assay buffer, 10 mg/ml fatty acid free-BSA and ddH2O.
ATX protein was diluted with 1×ATX assay buffer to a concentration of 1.32 μg/mL (1.32×). 38 μL was added per well to the assay plate. The final concentration of ATX in the reaction as 1.0 μg/mL.
2 μL per well of compounds was transferred to provide the desired concentration. The plate was centrifuged, then incubated at room temperature for 30 minutes on the shaker.
FS-3 was diluted with 1×ATX assay buffer to a concentration of FS-3 of 10 μM (5×). Then, 10 μL was added per well to the assay plate. The final concentration of FS-3 in the reaction was 2 μM. The plate was centrifuged. The plate was kept shaking at room temperature for 2 hours. Because FS-3 substrate is light sensitive, plates were kept covered and protected from light.
Fluorescence was measured using SpectraMax M5 (excitation at 485 nm/emission at 538 nm, top read).

inhibition at 10 µM | SMILES
60% | O=C(OCc1cc(C(F)(F)F)cc(C(F)(F)F)c1)N1CCCn2nc(CO)cc2C1 [Example 282, 3,5-bis(trifluoromethyl)benzyl 2-(hydroxymethyl)-7,8-dihydro-4H-pyrazolo[1,5-a][1,4]diazepine-5(6H)-carboxylate]

Same assay, conditions: greater than 10 μM

IC50 | SMILES
> 10000 nM | COC(=O)C1CN(C(=O)OCc2cc(C(F)(F)F)cc(C(F)(F)F)c2)Cc2ccnn2C1 (stereo not shown) [Example 406]

Same assay, conditions: upper bound bins (no greater than 100, 250 or 500 nM); FS-3 2 μM, ATX 1.0 μg/mL

IC50 | SMILES
≤ 100 nM | CC(C)(C)OC(=O)N1CCN(C(=O)c2cc3n(n2)CCN(C(=O)OCc2cc(C(F)(F)F)cc(C(F)(F)F)c2)C3)C(C)(C)C1 [Example 462]
≤ 100 nM | CN1CCN(C(=O)c2cc3n(n2)CCCN(C(=O)OCc2cc(Cl)cc(C(F)(F)F)c2)C3)C(C)(C)C1 [Example 176, 3-chloro-5-(trifluoromethyl)benzyl 2-(2,2,4-trimethylpiperazine-1-carbonyl)-7,8-dihydro-4H-pyrazolo[1,5-a][1,4]diazepine-5(6H)-carboxylate]
≤ 100 nM | O=C(NC1CCC1)c1cc2n(n1)CCCN(C(=O)OCc1cc(Cl)cc(Cl)c1)C2 [Example 15, 3,5-Dichlorobenzyl 2-(cyclobutylcarbamoyl)-7,8-dihydro-4H-pyrazolo[1,5-a][1,4]diazepine-5(6H)-carboxylate]
≤ 250 nM | CC(c1cc2n(n1)CCCN(C(=O)OCc1cc(Cl)cc(Cl)c1)C2)N1CCCCC1 (stereo not shown) [Example 446]
≤ 100 nM | C[C@H]1CNC[C@H](C)N1C(=O)c1cc2n(n1)CCCN(C(=O)OCc1cc(C(F)(F)F)cc(C(F)(F)F)c1)C2 [Example 247]
≤ 100 nM | O=C(O)c1nn2c(c1Br)CN(C(=O)OCc1cc(C(F)(F)F)cc(C(F)(F)F)c1)CCC2 [Example 115, 5-(((3,5-Bis(trifluoromethyl)benzyl)oxy)carbonyl)-3-bromo-5,6,7,8-tetrahydro-4H-pyrazolo[1,5-a][1,4]diazepine-2-carboxylic acid]
≤ 100 nM | CCOC(=O)c1cc2n(n1)CC(O)CN(C(=O)OCc1cc(C(F)(F)F)cc(C(F)(F)F)c1)C2 (stereo not shown) [Example 409]
≤ 100 nM | O=C(OCc1cc(Cl)cc(Cl)c1)N1CCCn2nc(C(=O)N3CCC(C(F)(F)F)CC3)cc2C1 [Example 22, 3,5-Dichlorobenzyl 2-(4-(trifluoromethyl)piperidine-1-carbonyl)-7,8-dihydro-4H-pyrazolo[1,5-a][1,4]diazepine-5(6H)-carboxylate]
≤ 250 nM | Cc1cc2n(n1)CCCN(C(=O)OCc1cc(F)cc(C(F)(F)F)c1)C2 [Example 128, 3-Fluoro-5-(trifluoromethyl)benzyl 2-methyl-7,8-dihydro-4H-pyrazolo[1,5-a][1,4]diazepine-5(6H)-carboxylate]
≤ 100 nM | O=C(NC1CCOCC1)c1cc2n(n1)CCCN(C(=O)OCc1cc(C(F)(F)F)cc(C(F)(F)F)c1)C2 [Example 506]
≤ 100 nM | Cc1nc(-c2cc3n(n2)CCCN(C(=O)OCc2cc(C(F)(F)F)cc(C(F)(F)F)c2)C3)no1 [Example 392, 3,5-bis(Trifluoromethyl)benzyl 2-(5-methyl-1,2,4-oxadiazol-3-yl)-7,8-dihydro-4H-pyrazolo[1,5-a][1,4]diazepine-5(6H)-carboxylate]
≤ 100 nM | N#Cc1cc2n(n1)CCCN(C(=O)OCc1cc(C(F)(F)F)cc(C(F)(F)F)c1)C2 [Example 125, 3,5-Bis(trifluoromethyl)benzyl 2-cyano-7,8-dihydro-4H-pyrazolo[1,5-a][1,4]diazepine-5(6H)-carboxylate]
≤ 100 nM | O=C(OCc1cc(C(F)(F)F)cc(C(F)(F)F)c1)N1CCn2nc(C(=O)N3CCCCC3)cc2C1 [Example 493]
≤ 100 nM | CCNC(=O)c1cc2n(n1)CCCN(C(=O)OCc1cc(Cl)cc(Cl)c1)C2 [Example 29, 3,5-Dichlorobenzyl 2-(ethylcarbamoyl)-7,8-dihydro-4H-pyrazolo[1,5-a][1,4]diazepine-5(6H)-carboxylate]
≤ 100 nM | O=C(OCc1cc(Cl)cc(C(F)(F)F)c1)N1CCn2nc(C(=O)N3CCNCC3)cc2C1 [Example 434]
≤ 100 nM | CC1(C)COCCN1CC(=O)c1cc2n(n1)CCCN(C(=O)OCc1cc(Cl)cc(C(F)(F)F)c1)C2 [Example 267]
≤ 100 nM | CC1(C)CNCCN1C(=O)c1cc2n(n1)CCCN(C(=O)OCc1cc(Cl)cc(C(F)(F)F)c1)C2 [Example 207, 3-chloro-5-(trifluoromethyl)benzyl 2-(2,2-dimethylpiperazine-1-carbonyl)-7,8-dihydro-4H-pyrazolo[1,5-a][1,4]diazepine-5(6H)-carboxylate]
≤ 100 nM | O=C(O)Cc1cc2n(n1)CCCN(C(=O)OCc1cc(C(F)(F)F)cc(C(F)(F)F)c1)C2 [Example 386, 2-(5-(((3,5-bis(Trifluoromethyl)benzyl)oxy)carbonyl)-5,6,7,8-tetrahydro-4H-pyrazolo[1,5-a][1,4]diazepin-2-yl)acetic acid]
≤ 100 nM | O=C(NC1COC1)c1cc2n(n1)CCCN(C(=O)OCc1cc(C(F)(F)F)cc(C(F)(F)F)c1)C2 [Example 505]
≤ 100 nM | O=C(NC1CC1)c1cc2n(n1)CCCN(C(=O)OCc1cc(C(F)(F)F)cc(C(F)(F)F)c1)C2 [Example 503]
≤ 100 nM | CCOC(=O)c1cc2n(n1)CCN(C(=O)OCc1cc(C(F)(F)F)cc(C(F)(F)F)c1)C2 [Example 403]
≤ 100 nM | O=C(O)c1nn2c(c1F)CN(C(=O)OCc1cc(C(F)(F)F)cc(C(F)(F)F)c1)CCC2 [Example 507, 5-(((3,5-bis(Trifluoromethyl)benzyl)oxy)carbonyl)-3-fluoro-5,6,7,8-tetrahydro-4H-pyrazolo[1,5-a][1,4]diazepine-2-carboxylic acid]
≤ 100 nM | O=C(OCc1cc(Cl)cc(C(F)(F)F)c1)N1CCCn2nc(C(=O)N3CC4CNCC4C3)cc2C1 (stereo not shown) [Example 170]
≤ 100 nM | CC1CN(C(=O)OCc2cc(C(F)(F)F)cc(C(F)(F)F)c2)Cc2cc(C(=O)O)nn2C1 (stereo not shown) [Example 111, 5-(((3,5-Bis(trifluoromethyl)benzyl)oxy)carbonyl)-7-methyl-5,6,7,8-tetrahydro-4H-pyrazolo[1,5-a][1,4]diazepine-2-carboxylic acid]
≤ 100 nM | Cc1nnc(-c2cc3n(n2)CCCN(C(=O)OCc2cc(C(F)(F)F)cc(C(F)(F)F)c2)C3)o1 [Example 119, 3,5-Bis(trifluoromethyl)benzyl 2-(5-methyl-1,3,4-oxadiazol-2-yl)-7,8-dihydro-4H-pyrazolo[1,5-a][1,4]diazepine-5(6H)-carboxylate]
≤ 250 nM | O=C(OCc1cc(C(F)(F)F)cc(C(F)(F)F)c1)N1CCCn2nc(CN[C@H]3CC[C@H](C(=O)O)CC3)cc2C1 [Example 289]
≤ 100 nM | O=C(OCc1cc(C(F)(F)F)cc(C(F)(F)F)c1)N1CCn2nc(C(=O)N3CCNCC3)cc2C1 [Example 435]
≤ 100 nM | CCOC(=O)c1cc2n(c1)CCCN(C(=O)OCc1cc(C(F)(F)F)cc(C(F)(F)F)c1)C2 [Example 106, 2-(3,5-Bis(trifluoromethyl)benzyl) 8-ethyl 4,5-dihydro-1H-pyrrolo[1,2-a][1,4]diazepine-2,8(3H)-dicarboxylate]
≤ 100 nM | CCN1CCN(C(=O)c2cc3n(n2)CCCN(C(=O)OCc2cc(Cl)cc(C(F)(F)F)c2)C3)C2(CC2)C1 [Example 179]
≤ 500 nM | CN1CCN(Cc2cc3n(n2)CCCN(C(=O)OCc2cc(C(F)(F)F)cc(C(F)(F)F)c2)C3)CC1 [Example 290, 3,5-bis(trifluoromethyl)benzyl 2-((4-methylpiperazin-1-yl)methyl)-7,8-dihydro-4H-pyrazolo[1,5-a][1,4]diazepine-5(6H)-carboxylate]

SMILES | IC50
O=C(OCc1cc(C(F)(F)F)cc(C(F)(F)F)c1)N1CCCn2nc(C3=CCNCC3)cc2C1 [Example 373, 3,5-bis(trifluoromethyl)benzyl 2-(1,2,3,6-tetrahydropyridin-4-yl)-7,8-dihydro-4H-pyrazolo[1,5-a][1,4]diazepine-5(6H)-carboxylate] | ≤ 100 nM
O=C(OCc1cc(C(F)(F)F)cc(C(F)(F)F)c1)N1CCCn2nc(C3CC4CCC(C3)N4)cc2C1 (stereo not shown) [Example 377] | ≤ 100 nM
CC(c1cc2n(n1)CCN(C(=O)OCc1cc(C(F)(F)F)cc(C(F)(F)F)c1)C2)N1CC2CCC(C1)N2C(=O)OC(C)(C)C (stereo not shown) [Example 449] | ≤ 100 nM
CC(c1cc2n(n1)CCCN(C(=O)OCc1cc(Cl)cc(Cl)c1)C2)N1C2CCCC1CCC2 (stereo not shown) [Example 453] | ≤ 250 nM
CN1C2CCC1CN(C(=O)c1cc3n(n1)CCCN(C(=O)OCc1cc(Cl)cc(C(F)(F)F)c1)C3)C2 [Example 201] | ≤ 100 nM

— patent US20160039825A1 (BIOGEN MA INC., priority 2013, published 2016)
